From PubChem BioAssay (NCI)
Values joined by “and” are separate entries in the source; they are usually repeats but may differ in a detail not shown here. Equal values may be shown once.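 Five concentrations, 48 hours, 96-well plates. GI50 is the concentration that inhibits growth by half. TGI marks complete inhibition of growth.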

What was measured:
Assay in all cases: NCI anticancer screen, dose series, 48 h
SR leukemia = system: SR leukemia
MOLT-4 leukemia = system: MOLT-4 leukemia
HCT-116 colon = system: HCT-116 colon
UACC-62 melanoma = system: UACC-62 melanoma
DU-145 prostate = system: DU-145 prostate
BT-549 breast = system: BT-549 breast
NCI/ADR-RES ovarian = system: NCI/ADR-RES ovarian
MDA-MB-231 breast = system: MDA-MB-231 breast
SNB-19 CNS = system: SNB-19 CNS
OVCAR-4 ovarian = system: OVCAR-4 ovarian

SMILES | GI50 (SR leukemia) | TGI (SR leukemia) | GI50 (MOLT-4 leukemia) | TGI (MOLT-4 leukemia) | GI50 (HCT-116 colon) | TGI (HCT-116 colon) | GI50 (UACC-62 melanoma) | TGI (UACC-62 melanoma) | GI50 (DU-145 prostate) | TGI (DU-145 prostate) | GI50 (BT-549 breast) | TGI (BT-549 breast) | GI50 (NCI/ADR-RES ovarian) | TGI (NCI/ADR-RES ovarian) | GI50 (MDA-MB-231 breast) | TGI (MDA-MB-231 breast) | TGI (SNB-19 CNS) | TGI (OVCAR-4 ovarian) | GI50 (SNB-19 CNS) | GI50 (OVCAR-4 ovarian)
OCC#CCOCC#Cc1ccccc1C#CCOCC#CCO | 18500 nM | > 100 µM | 44.8 µM | > 100 µM | 16.6 µM | 44 µM | 25.8 µM | 75.1 µM | 48.4 µM | > 100 µM | 34.2 µM | 93.2 µM | 46.6 µM | > 100 µM | 30.2 µM | 83.4 µM | – | – | – | –
Nc1n[n+]([O-])c2cc([N+](=O)[O-])ccc2[n+]1[O-] | – | 18.4 µM | – | 4.16 µM | – | 16.5 µM | – | 9.84 µM | – | 31.7 µM | – | 32 µM | – | 32.8 µM | – | 44.7 µM | 31.1 µM | 10.2 µM | – | –
O=C(COc1ccc(/C=C2\Oc3ccc4ccccc4c3C2=O)cc1)c1ccc([N+](=O)[O-])cc1 | 29.1 nM | 1.84 µM | 1.87 µM | 5.56 µM | 3.03 µM | 13.8 µM | 11.9 µM | 25.9 µM | 10.9 µM | 23.1 µM | 11.1 µM | 26.4 µM | 21.8 µM | 82.1 µM | 19 µM | 71.9 µM | 35.6 µM | 8.87 µM | 15.6 µM | 2.14 µM
O=CC(OC(=O)c1ccccc1)C(OC(=O)c1ccccc1)C(COC(c1ccccc1)(c1ccccc1)c1ccccc1)OC(=O)c1ccccc1 (centres undefined) | 1300 nM | 4.03 µM | 2.64 µM | 11.7 µM | 6.21 µM | 19 µM | 14.5 µM | 44.1 µM | 15.3 µM | 28.6 µM | 23.4 µM | > 100 µM | 19.3 µM | 45.4 µM | 21.6 µM | > 100 µM | 28.6 µM | 47.1 µM | 15.3 µM | 17.5 µM
O=c1cc(-c2ccc(Cl)cc2)[nH]c2ccccc12 | 4760 nM | > 100 µM | 46.8 µM | > 100 µM | 32.5 µM | > 100 µM | 37.4 µM | > 100 µM | 66.4 µM | > 100 µM | 29.4 µM | > 100 µM | 27.1 µM | > 100 µM | 57 µM | > 100 µM | > 100 µM | > 100 µM | 95.3 µM | > 100 µM
Cc1cccc(C(C)(C)C)c1NC(=O)C(C#N)C1=C(Cl)C(=O)c2ccccc2C1=O (centres undefined) | – | > 100 µM | – | 22.6 µM | – | 27.2 µM | – | 32.5 µM | – | 36.5 µM | – | 27.5 µM | – | 37.7 µM | – | 27.3 µM | 39.1 µM | 28.9 µM | – | –
OCC1NC(COC2OC(CO)C(O)C(O)C2O)C(O)C(O)C1O (centres undefined) | – | > 100 µM | – | > 100 µM | – | > 100 µM | – | > 100 µM | – | > 100 µM | – | > 100 µM | – | > 100 µM | – | > 100 µM | > 100 µM | > 100 µM | – | –
COc1ccc(-n2cc(-c3cc(OC)c(OC)c(OC)c3)nc2SCc2ccc(Cl)cc2)cc1OC | > 100000 nM | > 100 µM | > 100 µM | > 100 µM | > 100 µM | > 100 µM | 35.5 µM | > 100 µM | > 100 µM | > 100 µM | > 100 µM | > 100 µM | 81.6 µM | > 100 µM | > 100 µM | > 100 µM | > 100 µM | > 100 µM | > 100 µM | 71.9 µM
CC1(C)OB(c2ccc(N(CCOS(C)(=O)=O)CCOS(C)(=O)=O)cc2)OC1(C)C | 23.4 nM | 1.02 µM | 1.68 µM | > 72.7 µM | 10.5 µM | 24.7 µM | 13 µM | 33 µM | 23.3 µM | 55.7 µM | 17.6 µM | 41 µM | 15.8 µM | 65.2 µM | > 43.5 µM | > 65.2 µM | > 100 µM | > 86.6 µM | 31.3 µM | 32.9 µM
O=C(O)C1C2C=CC(O2)C1C(=O)NCc1cccnc1 (centres undefined) | – | > 100 µM | – | > 100 µM | – | > 100 µM | – | > 100 µM | – | > 100 µM | – | > 100 µM | – | > 100 µM | – | > 100 µM | > 100 µM | > 100 µM | – | –
Cc1ccc2c(c1)[n+](=O)c(C(=O)c1cccs1)c(C(F)(F)F)n2[O-] | 152 nM | 50 µM | 4.12 µM | 50 µM | 2.47 µM and 0.731 µM | 50 µM and 15.9 µM | 0.951 µM and 1.91 µM | 2.73 µM and 13.9 µM | 0.913 µM and 0.573 µM | 2.08 µM and 2.42 µM | 0.603 µM | 1.97 µM | 1.14 µM and 0.524 µM | 10.3 µM and 10.1 µM | 1.01 µM and 1.08 µM | 2.8 µM and 6.37 µM | 11.2 µM and 17.8 µM | – | 2.24 µM and 3.91 µM | –
COc1ccccc1-n1cnc(N)c1C(=O)c1cc(OC)c(OC)c(OC)c1 | 1920 nM | > 100 µM | 4.82 µM | > 100 µM | 4.95 µM | > 100 µM | 1.88 µM | > 100 µM | 6.65 µM | > 100 µM | 3.55 µM | 66.2 µM | 13.1 µM | > 100 µM | 5.93 µM | > 100 µM | > 100 µM | > 100 µM | 4 µM | 6.5 µM
COc1ccc(-c2nn(-c3cccc(Cl)c3)cc2/C=C2\NC(=S)N(c3ccc(Cl)cc3)C2=O)cc1 | 3590 nM | 7.29 µM | 4.47 µM | 10.7 µM | 3.18 µM | 7.75 µM | 3.29 µM | 7.64 µM | 8.75 µM | > 25 µM | 4.46 µM | 11.6 µM | 5.51 µM | 14.5 µM | 3.33 µM | 11.5 µM | > 25 µM | 7.45 µM | 6.54 µM | 3.54 µM
N#Cc1ncc(C(Cl)Cl)nc1Cl | – | > 5.84 µM | – | > 6.63 µM | – | 3.04 µM | – | 5.9 µM | – | > 10 µM | – | 4.8 µM | – | 5.38 µM | – | 3.17 µM | > 10 µM | 3.31 µM | – | –
